Measurements taken from article doi:10.1101/2023.01.11.523589v2 (biorxiv, 2023).

What was measured:
HiBIT-WDR5 [1] = biological target: T1, HiBIT-WDR5 (Homo sapiens, UniProt P61964); experiment: cell-based; design: species or system HEK293T HiBIT-WDR5; settings: HEK-293T, read-out: CETSA thermal shifts [°C]
HiBIT-WDR5 [2] = biological target: T1, HiBIT-WDR5; experiment: cell-based; design: species or system HEK293T HiBIT-WDR5; settings: HEK-293T, read-out: Dmax (23-24h) at 7.5 µM in %
[3] = biological target: HiBIT-WDR5 (HiBIT-tagged full length WDR5) (Homo sapiens, UniProt P61964); experiment: in vitro NanoBRET tracer displacement; type: binding

Compound	ΔTm at 10 µM (HiBIT-WDR5 [1]) [°C]	Dmax at 7.5 µM (HiBIT-WDR5 [2]) [%]	IC50 [3] [µM]
Cc1ncsc1-c1ccc([C@H](C)NC(=O)[C@H]2C[C@H](O)CN2C(=O)[C@@H](NC(=O)CNC(=O)c2ccc(F)c(-c3ccc(N4C[C@@H](C)N(C)[C@@H](C)C4)c(NC(=O)c4c[nH]c(=O)cc4C(F)(F)F)c3)c2)C(C)(C)C)cc1 [MS67N]	11.6	–	–
Cc1ncsc1-c1ccc([C@H](C)NC(=O)[C@@H]2C[C@@H](O)CN2C(=O)[C@@H](NC(=O)CNC(=O)c2ccc(F)c(-c3ccc(N4C[C@@H](C)N(C)[C@@H](C)C4)c(NC(=O)c4c[nH]c(=O)cc4C(F)(F)F)c3)c2)C(C)(C)C)cc1 [MS67]	13.8	69 ± 4	–
CC(=O)N[C@H](C(=O)N1C[C@H](O)C[C@H]1C(=O)NCc1ccc(-c2scnc2C)cc1)C(C)(C)C [VH032, reference compound]	–	–	> 3
CC(=O)N[C@H](C(=O)N1C[C@H](O)C[C@H]1C(=O)NCc1ccc(-c2scnc2C)cc1)C(C)(C)C [VH032]	2.6	–	–
